Measurements published in patent publication US8883798B2, “Pyrimidine compounds inhibiting the formation of nitric oxide and prostaglandin E2, method of production thereof and use thereof” (Ustav Organicke Chemie a Biochemie Akademie Ved CR, V.V.I., priority 2011, dated 2014).

Legend:
peritoneal cells of mice = assay: Cell viability of mouse peritoneal cells (WST-1 kit); type: cell-based; settings: substance 50 μmol·l^−1, 24 h; for Cell viability in % of the controls: Table 3A; for Cell viabilities in % of the controls: Table 3B
Description: Cell viability was determined in the standard way using a WST-1 kit (Roche). The values of the viability of the control cells were for the purposes of comparison between experiments considered as 100%. The influence of the substances on the longevity of the cells was evaluated in percentage with respect to the control values.
(§1) Experiments were performed on mice peritoneal cells C57BL/6 (Charles River, Germany—AnLabu).
(§2) NO production was induced using IFN-g (5000 pg/mL) plus LPS (100 pg/mL); evaluated (Griess reagent) after 24 h of the cell cultivation (2×10^6/mL). PGE2 was induced using LPS (10 ng/mL); evaluated (ELISA) following 6 h cultivation of cells (3×10^6/mL). Cell longevity was evaluated using WST-1 (tetrazolium salt), following 24 h cultivation of cells (1×10^6/mL). The values mentioned in the table represent the effects of the substances tested in a concentration of 50 μmol·l^−1.

[1] = test system: production of nitric oxide (NO); assay: Production of nitric oxide (NO) in cultures of mouse peritoneal cells stimulated with IFN-γ plus LPS (Griess reagent); type: cell-based, mice; settings: substance 50 μmol·l^−1, IFN-g plus LPS, 24 h
Description: (§3) Under in vitro conditions, the effect of the pyrimidine compounds according to this invention was tested in terms of the production of nitric oxide (NO) and in terms of the production of prostaglandin E2 (PGE2) in cultures of the peritoneal cells of mice.
NO is a product of the metabolism of L-arginine, quickly changes to […], which are then measured using the Griess reagent system. Under normal conditions, the production of NO is practically zero. It only occurs after some stimulation. In these experiments, interferon-gamma (IFN-γ) and bacterial lipopolysacharide (LPS) were used as stimulators. The values of NO induced in this way fluctuated in the individual experiments in a range from 52 to 89 μmol·l^−1; for the purposes of comparison between the experiments they were considered as 100%. The production of NO after the application of the substances was expressed in percentage with respect to the control values. (The lower the value, the higher the inhibition effect of the substances on NO production.) IC50 are the concentrations of the substances reducing the production of NO by 50% with respect to the controls.
as §1, §2

[2] = test system: production of prostaglandin E2 (PGE2); assay: Production of prostaglandin E2 (PGE2) in cultures of mouse peritoneal cells stimulated with LPS (ELISA kit); type: cell-based, mice; settings: for Production of prostaglandins in % of the controls: Table 3A, substance 50 μmol·l^−1, 6 h; for Production of prostaglandins IC50 (μmol · 1^−1) average value and range of values: Table 3B, 6 h
Description: as §3
The influence on the production of prostaglandin E2 (PGE2) in vitro caused by the activity of the pyrimidine compounds according to the submitted invention was determined in cultures of the peritoneal cells of mice using a commercial kit (R&DSystems). The concentrations of PGE2 after lipopolysacharide (LPS) stimulation reached in the individual experiments values in a range of 22 to 91 ng·ml^−1 and for the purposes of comparison between the experiments were considered as 100%. The influence of the substances on the production of PGE2 was evaluated in percentage with respect to the control values.
as §1, §2

| Structure (SMILES) | Cell viability in % of the controls (peritoneal cells of mice) | Production of nitric oxide in % of the controls ([1]; Table 3A) | Production of prostaglandins in % of the controls [2] | Cell viabilities in % of the controls (peritoneal cells of mice) | Production of nitric oxide in % of the controls ([1]; Table 3B) | Production of prostaglandins IC50 (μmol · 1^−1) average value and range of values [2] |
| --- | --- | --- | --- | --- | --- | --- |
| CCC(C)c1c(Cl)nc(N=CN(C)C)nc1Cl (stereo not drawn) [Substance 21] | 122.65 ± 14.39 % of the controls | 0.69 ± 0.12 % of the controls | 8.14 ± 0.07 % of the controls | – | – | – |
| CCCCc1c(Cl)nc(Sc2ccccc2)nc1Cl [Substance 148] | – | – | – | 90.49 ± 4.62; n = 12 % of the controls | 61.85 ± 10.25; =10 % of the controls | 77.50 ± 16.19; n = 4 μmol · 1^−1 |
| CCCCc1c(-c2ccncc2)nc(N)nc1-c1cccs1 [Substance 91] | – | – | – | 81.38 ± 6.86; n = 4 % of the controls | 63.95 ± 2.00; n = 4 % of the controls | 29.01 ± 5.46; n = 4 μmol · 1^−1 |
| CCCCc1c(-c2ccco2)nc(N)nc1-c1ccco1 [Substance 100] | – | – | – | 69.04 ± 4.47; n = 8 % of the controls | 33.70 ± 2.71; n = 6 % of the controls | 22.46 ± 7.25; n = 2 μmol · 1^−1 |
| Cc1c(Cl)nc(N=CN(C)C)nc1Cl [Substance 13] | 77.29 ± 3.69 % of the controls | 21.39 ± 4.78 % of the controls | 59.98 ± 1.82 % of the controls | – | – | – |
| CCCCc1c(-c2ccc(F)cc2)nc(N)nc1-c1ccco1 [Substance 95] | – | – | – | 119.71 ± 4.71; n = 8 % of the controls | 61.96 ± 6.41; n = 6 % of the controls | 70.79 ± 11.61; n = 4 μmol · 1^−1 |
| CCCCc1c(-c2ccc(F)cc2)nc(N)nc1-c1ccc(F)cc1 [Substance 70] | – | – | – | 108.03 ± 9.80; n = 4 % of the controls | 87.03 ± 3.75; n = 4 % of the controls | 51.70 ± 13.80; n = 2 μmol · 1^−1 |
| CCCCc1c(-c2ccccc2)nc(N)nc1-c1ccco1 [Substance 94] | – | – | – | 104.21 ± 14.38; n = 8 % of the controls | 39.73 ± 5.57; n = 6 % of the controls | 38.84 ± 15.99; n = 4 μmol · 1^−1 |
| CCCCc1c(-c2ccc(OC)cc2)nc(N)nc1-c1cccs1 [Substance 88] | – | – | – | 125.52 ± 5.28; n = 8 % of the controls | 69.14 ± 9.10; n = 2 % of the controls | 14.19 ± 4.00; n = 6 μmol · 1^−1 |
| CCCCc1c(-c2cc3ccccc3o2)nc(N)nc1-c1cc2ccccc2o1 [Substance 125] | – | – | – | 76.82 ± 8.89; n = 8 % of the controls | 67.76 ± 6.80; n = 6 % of the controls | 73.07 ± 1.91; n = 2 μmol · 1^−1 |
| C=CCc1c(Cl)nc(N)nc1Cl [Substance 32] | 93.55 ± 19.55 % of the controls | 41.72 ± 9.27 % of the controls | 90.81 ± 5.95 % of the controls | – | – | – |
| CCCc1c(Cl)nc(N)nc1Cl [Substance 27] | 87.86 ± 9.18 % of the controls | 46.98 ± 10.25 % of the controls | 31.73 ± 4.35 % of the controls | – | – | – |
